Patent publication EP2488183B1, “Composition for inhibiting TGF-beta comprising imidazopurine derivatives” (Korea Institute of Radiological & Medical Sciences, priority 2009, dated 2011)

How the values were obtained:
HEK 293 cells = experiment: Cytotoxicity test, CCK-8 assay; assay type: cell-based, human; conditions: CCK-8, absorbance 450 nm, FIGS. 4a, 4b
Protocol: In order to confirm that the luciferase activity is inhibited due to TGF-β inhibitor, rather than apoptosis, a CCK-8 survival rate assay kit (Dojindo, Japan) was used and an absorbance was measured at a wavelength of 450 nm by using a spectrophotometer (Labsystems, U.S.A.) to count the number of cells. The shown values are average values obtained from three independent experiments.

RAW 264.7 cell = experiment: RT-PCR of pro-inflammatory cytokine and iNOS mRNA in macrophages stimulated by LPS; assay type: cell-based, mouse; conditions: RAW 264.7, compound 2 h before 1 µg/ml LPS, 6 h; FIG. 8
Protocol: A macrophage is a front-line immune cell that is responsible for an initial immune response to various antigens and causes a strong inflammation reaction. RAW 264.7 cell, a mouse macrophage strain, was purchased from American Type Culture Collection (ATCC, U.S.A.), and incubated under 5% CO2 and at a temperature of 37°C in a Dulbecco's modified Eagle's medium (DMEM) supplemented with 10% FBS serum, 100 units/ml of penicillin, and 100 µg/ml of streptomycin. […] of compound I or II was added to the incubated cells and then, two hours later, the cells were treated with 1 µg/ml lipopolysaccharide (LPS), which is a cell wall component of a gram negative bacteria and incubated further for 6 hours. Then, the cells were collected and the total RNA thereof was isolated using TRIzol and quantified. Out of the total RNA, 1 µg of RNA was used to synthesize cDNA using a reverse transcriptase. Then, a polymerase chain reaction (PCR) was performed using the cDNA as a template to identify expression levels of cytokines. In detail, PCR was performed in the presence of a DNA polymerase using the cDNA as a template to amplify IL-1β, IL-6, and TNF-α which are pro-inflammatory cytokines, iNOS, nitric oxide synthase, and β-actin used as a control group with a cycle consisting of 30 seconds at a temperature of 94°C, 45 seconds at a temperature of 55°C, and 45 seconds at a temperature of 72°C repeated 30 times. Primers set forth in SEQ ID. NOs: 1 through 10 shown in Table 1 were used to amplify IL-1β, IL-6, TNF-α, iNOS and β-actin, respectively. Table 1 [Table 1]
The amplification product of PCR was subjected to electrophoresis on 1% agarose gel in which ethidium bromide (dye) was present so as to measure mRNA expression levels of the cytokines. FIGS. 8a and 8b show changes in the amounts of the pro-inflammatory cytokines caused by compounds I and II, respectively.

IMR-90 cells [1] = experiment: Western blotting of fibrosis markers in irradiated lung fibrocytes; assay type: cell-based, human; conditions: IMR-90, 10 µM, 2 h before 4 Gy radiation, 48 h; FIG. 7c
Protocol: (§1) In order to identify whether compound I inhibits radiation-induced fibrosis, instead of external stimulation by TGF-β radiation that can internally engogenously increase TGF-β was employed to induce fibrosis. IMR-90 cells were incubated as described in (1) above and the IMR-90 cells were inoculated to a 6 cm plate containing a modified Eagle's medium (MEM) supplemented with 10% FBS serum, 100 units/ml of penicillin, and 100 µg/ml of streptomycin, 1 mM sodium pyruvate, and 0.1 mM non-essential amino acids. Then, compound I at a concentration of 10 µM was added thereto and the IMR-90 cells were incubated for 2 hours, and then, 4 Gy radiation was applied thereto. 48 hours later, the IMR-90 cells were collected. Then, fibrosis makers as described in Example 2 were identified from the IMR-90 cells by western blotting.

IMR-90 cells [2] = experiment: Western blotting of fibrosis markers in TGF-β-treated lung fibrocytes; assay type: cell-based, human; conditions: IMR-90, 0, 1, 5 and 10 µM added 2 h before TGF-β (5 ng/ml), 24 h; FIG. 7a
Protocol: (§2) IMR-90 cells, human normal lung fibrocytes, were purchased from American Type Culture Collection (ATCC, U.S.A.), and were incubated under 5% CO2 and at a temperature of 37°C for 24 hours in a modified Eagle's medium (MEM) supplemented with 10% FBS serum, 100 units/ml of penicillin, and 100 µg/ml of streptomycin, 1 mM sodium pyruvate, and 0.1 mM non-essential amino acids. Then, two hours before treatment with TGF-β (5ng/ml), compound I was added to the cell culture at a varying concentration (0, 1, 5 and 10 µM) and then, the IMR-90 cells were incubated for 24 hours. Then, as described in Example 2, western blotting was performed to identify inhibition of differentiation of lung fibrocytes by compound I based on expression levels of α-SMA and fibronectin, which are fibrosis marker molecules. […] Also, in extracellular matrix, the amount of collagen, which is one of important materials regarding fibrosis, was measured according to the specification of the manufacturer by using a collagen Sircol assay kit (Biocolor, England).

IMR-90 cells [3] = experiment: Collagen Sircol assay in TGF-β-treated lung fibrocytes; assay type: cell-based, human; conditions: IMR-90, TGF-β (5 ng/ml), 0, 1, 5 and 10 µM; FIG. 7b
Protocol: as §2

IMR-90 cells [4] = experiment: Collagen amount in irradiated lung fibrocytes; assay type: cell-based, human; conditions: IMR-90, 10 µM, 2 h before 4 Gy radiation, 48 h; FIG. 7d
Protocol: as §1

| SMILES | cell count (cytotoxicity) (HEK 293 cells) | IL-6 mRNA expression (RAW 264.7 cell) | expression of TNF-α (RAW 264.7 cell) | iNOS mRNA expression (RAW 264.7 cell) | expressions of α-SMA and fibronectin (IMR-90 cells [1]) | fibrosis in human lung fibrocytes (expression levels of α-SMA and fibronectin) (IMR-90 cells [2]) | IL-1 mRNA expression (RAW 264.7 cell) | amount of collagen (IMR-90 cells [3]) | amount of collagen (IMR-90 cells [4]) |
| --- | --- | --- | --- | --- | --- | --- | --- | --- | --- |
| Cc1[nH]c2nc3c(c(=O)n(Cc4c(F)cccc4Cl)c(=O)n3C)n2c1C [compound II, 3-(2-chloro-6-fluorobenzyl)-1,6,7-trimethyl-1H-imidazo[2,1-f]purine-2,4(3H,8H)-dion] | no significant decrease in the cell count | distinctively reduced | slightly reduced | distinctively reduced |  |  |  |  |  |
| Cc1cn2c(nc3c2c(=O)n(Cc2ccccc2Cl)c(=O)n3C)[nH]1 [compound I, 3-(2-chlorobenzyl)-1,7-dimethyl-1H-imidazo[2,1-f]purine-2,4(3H,8H)-dion] | no significant decrease in the cell count |  | slightly reduced | significantly inhibited | significantly reduced | concentration-dependently decreased fibrosis | significantly inhibited | concentration-dependently reduced the amount of collagen | reduced to a level similar to that in the no-treatment control group |
